What all share (format): biochemical, human
Common to all, as to settings: 1 mg protein of the tissue extract

Assay [1] relates to α1,4-L-FT of breast tumor BC9400. Briefly: α1,4-L-FT assay, breast tumor extract. On the procedure: (§1) Colon tumor tissue (CC9338) and breast tumor tissue (BC9400) were obtained during surgical procedures at Roswell Park Cancer Institute and stored frozen within 1 h at −70° C. The tissues were homogenized at 4° C. with 4 volumes of 0.1M Tris Maleate […] 0.1% NaN3 using kinematica. After adjusting the concentration of Triton X-100 to 2%, these homogenates were mixed in the cold room for 1 h using Speci-Mix (Thermolyne) and then centrifuged at 20,000 g for 1 h at 4° C. The clear fat-free supernatant was stored frozen at −20° C. until use. Aliquots of 10 μL from this extract were used in assays run in duplicates. Glycosyltransferase activity in cell lysate was determined by mixing the lysates with acceptor and radiolabeled donor (monosaccharide) under the reaction conditions detailed below, followed by separation of un-reacted donor from the radioactive product using anionic or hydrophobic chromatography. In all cases, the radioactive content of isolated products was determined by using 3a70 scintillation cocktail (Research Products International, Mount Prospect, Ill.) and a Beckman LS6500 scintillation counter. Controls for each assay contained the reaction mixture with everything except the acceptor. All assays were run in duplicate. […]

In assay [2] the test system is α1,4-L-FT of colon tumor CC9338. Briefly: α1,4-L-FT assay, colon tumor extract. On the procedure: as §1
Assay [3] deals with α1,3-L-FT of breast tumor BC9400. The assay can be described thus: α1,3-L-FT assay, breast tumor extract. On the procedure: as §1
For assay [4], the system named is α1,3-L-FT of colon tumor CC9338. The assay can be described thus: α1,3-L-FT assay, colon tumor extract. On the procedure: as §1

As for `CO[C@H]1[C@H](O[C@H]2[C@H](O)[C@@H](CO)OC(O)[C@@H]2NC(C)=O)O[C@H](CO)[C@H](O)[C@@H]1O` (stereo partly shown) [2-O-MeGalβ1,3GlcNAc], the “α1,4-L-FT activity: incorporation of radioactive sugar” value in assay [1] is given as 4.6 CPM × 10^−3; in assay [2], 727.5 CPM × 10^−3.
For `CO[C@H]1[C@H](O[C@H]2[C@H](O)[C@@H](NC(C)=O)C(O)O[C@@H]2CO)O[C@H](CO)[C@H](O)[C@@H]1O` (stereo partly shown) [2-O-MeGalβ1,4GlcNAc], the “α1,3-L-FT activity: incorporation of radioactive sugar” value in assay [3] is given as 30.5 CPM × 10^−3; in assay [4], 540.9 CPM × 10^−3.

The values above are taken from patent US20100221763A1, “Specific Acceptors for Transferases to Saccharides and Method for Obtaining and Using Same” (Health Research, Inc, priority 2005, published 2010).
